According to patent publication US20030054524A1, “Method of increasing the fatty acid content in plant seeds” (priority 1999, published 2003):
pIC50: −log10 of the molar value.

How the values were obtained:
clKASIV = molecular target: T1, clKASIV (Cuphea lanceolata, UniProt Q949J2); experiment: Enzyme assay: sensitivity of recombinant clKASIV to cerulenin; type: biochemical; settings: condensation assay with [2-14C]-malonyl-ACP
T1 sequence (Q949J2 106-538): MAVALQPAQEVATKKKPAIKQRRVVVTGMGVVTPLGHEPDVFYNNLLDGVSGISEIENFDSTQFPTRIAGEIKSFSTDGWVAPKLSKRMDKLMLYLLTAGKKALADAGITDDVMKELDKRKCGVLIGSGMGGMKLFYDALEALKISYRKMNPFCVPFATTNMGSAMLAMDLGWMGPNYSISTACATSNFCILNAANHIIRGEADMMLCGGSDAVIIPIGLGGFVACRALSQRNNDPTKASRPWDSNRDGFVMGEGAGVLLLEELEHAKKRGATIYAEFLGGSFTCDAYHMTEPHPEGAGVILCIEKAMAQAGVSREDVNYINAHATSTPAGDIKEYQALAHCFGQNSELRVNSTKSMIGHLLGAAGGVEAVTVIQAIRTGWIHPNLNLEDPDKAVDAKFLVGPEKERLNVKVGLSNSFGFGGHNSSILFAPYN
Method: The substrate specificities of the recombinant KASII and KASIV enzymes was investigated by incorporating radioactivity of [2-1^4C]-malonyl-ACP into the condensation products. The batch ([…]) contained 100 mM sodium phosphate, pH 7.6, 10 µM acyl-ACP with a specific chain length, 7.5 μM [2-^14C]-malonyl-ACP (0.74 MBq/mmol), 2 mM NADPH, 2 mM DTT, 0.6 Fkat of affinity-purified recombinant GST-β-ketoacyl-ACP-reductase fusion protein of C. lanceolata (Klein et al. (1992) Mol. Gen. Genet. 233:122-128) and 2 μg of the recombinant KASII/IV preparation. The β-hydroxyacyl-ACPs that were synthesized were precipitated, washed and dissolved as described by Winter et al. (1997) Biochem. J 321:313-318 and then separated by a 2.5 M urea-PAGE. After transfer to an Immobilon P membrane by electroblotting at 0.8 mA/cm for one hour, the reaction products were visualized by autoradiography after five-day exposure on an x-ray film (Hyperfilm MP, Amersham, Braunschweig, Germany).
In the assays, saturated acyl-ACP (C4 through C16) was added to the reaction mixture together with [2- ^4C]-malonyl-ACP and was incubated for ten minutes. Incorporation of the radioactivity from [2- ^4C]-malonyl-ACP into the O-ketoacyl-ACP product, which was reduced to β-hydroxyacyl-ACP for the analysis, was determined. […]

enzymes of the KASI type = settings: in the presence of 5 μM cerulenin; cited from earlier work

pIC50 (clKASIV): 4.70
SMILES: C/C=C/C/C=C/CCC(=O)[C@H]1O[C@H]1C(N)=O [cerulenin, Cerulenin]
inactivation of enzymes of the KASI type by cerulenin (enzymes of the KASI type): completely inactivated
